Results taken from US20230057309A1, “Inhibitors of DREAM Complex Assembly and/or Function For Use In Repairing DNA Damage” (priority 2021, published 2023).

Legend:
DREAM target genes = assay: RNA-seq of quiescent (serum-starved) U2OS cells treated with DYRK1A inhibitors; format: cell-based, human; conditions: 24 h treatment, harmine 10 μM, INDY 25 μM; for number of the 67 DNA repair genes bound by DREAM that were upregulated: FDR<0.01
Experimental: (§1) U2OS were cultured in DMEM, high glucose GlutaMAX Supplement, Pyruvate (Thermo Fisher Scientific, 31966047) with 10% fetal bovine serum (FBS; Biochrom GmbH, S0615) and 1% Penicillin-Streptomycin (Thermo Fisher Scientific, 15140112). Cells were kept at 37° C. in a 5% CO2 incubator (Binder). Cell dissociation from the plates was performed with Accutase (Sigma, A6964). Cells were cultivated in FBS-free medium for 48 hours before genotoxic treatment were applied. […] Before the genotoxic treatment, cells were washed with FBS-free medium. For the UV treatment, medium was removed from the plates and cells were irradiated using 254 nm UV-C light Phillips UV6 bulbs. The MMS treatment was performed by adding MMS at 2 mM for 2 hours, followed by 3 washes with FBS-free medium. Quantification via FACS of cell death and apoptosis was performed 24 hours after genotoxic treatment.
For the qPCRs and RNA-seq on L1 worms, around 10.000 (qPCR) or 40.000 (RNA-seq) bleach-synchronized L1 worms in triplicates (qPCR) or quadruplicates (RNA-seq) per strain and condition were placed in seeded NGM plates and left at 20° C. for 3 hours. Posteriorly, they were irradiated with a 310 nm UV-B light Philips UV6 bulb in a Waldmann UV236B irradiation device or left unirradiated, and left for 6 more hours to allow the DNA damage related transcriptional changes to be taking place. After this, worms were collected, washed three times with M9 buffer, and the pellet was placed in a tube containing 1 ml of TRIzol™ (Invitrogen, 15596018) and 1 mm zirconia/silica beads (Biospec Products, 11079110z). To extract the RNA, worms were first disrupted with a Precellys24 (Bertin Instruments, P000669-PR240-A), and then the RNA isolation was performed by using the RNeasy Mini Kit (QIAGEN, 74106) following the manufacturer's specifications, except for the use of 1-bromo-3-chloropropane (Sigma, B9673) instead of chloroform. The RNA was quantified using NanoDrop™ 8000 (ThermoFisher, ND-8000-GL). […] Cells were disrupted with RLT buffer and homogenized with QIAshredder spin columns (QIAGEN, 79656).
The human RNA-seq data were processed with Salmon-1.1 (Patro et al., 2017) against a decoy-aware transcriptome (gencode.v37 transcripts and the GRCh38.primary_assembly genome) with the following parameter: --validateMappings -gcBias -seqBias. The output was imported and summarized to the gene-level with tximport (1.14.2) (Soneson, Love and Robinson, 2016) and differential gene analysis was done with edgeR (3.28.1) (Robinson, McCarthy and Smyth, 2009).

U2OS cells [1] = assay: UV-induced apoptosis in quiescent U2OS cells (Annexin V / 7-AAD FACS); format: cell-based, human; conditions: UV 2 mJ·cm-2; 24 h after UV; harmine 10 μM, INDY 25 μM
Experimental: as §1
(§2) Collected cells were incubated in Annexin V Binding buffer (BioLegend, 422201) with Pacific Blue Annexin V (BioLegend, 640917) and 7-AAD (Thermo Fisher Scientific, 00699350) at 4° C. for 15 minutes. Cells were measured using a MACSQuant VYB (Miltenyi Biotec) and analyzed using FlowJo (BD).

U2OS cells [2] = assay: MMS-induced apoptosis in quiescent U2OS cells (Annexin V / 7-AAD FACS); format: cell-based, human; conditions: MMS 2 mM for 2 hours; 24 h after treatment; harmine 10 μM, INDY 25 μM
Experimental: as §1, §2

U2OS cells [3] = assay: DNA repair kinetics in U2OS cells, γH2AX antibody staining after UV; format: cell-based, human; conditions: quiescent cells, hours after UV; harmine 10 μM, INDY 25 μM
Experimental: Before the genotoxic treatment, cells are washed with FBS-free medium. For the UV treatment, medium is removed from the plates and cells are irradiated using 254 nm UV-C light Phillips UV6 bulbs. The MMS treatment is performed, e.g., by adding MMS at 2 mM for 2 hours, followed by 3 washes with FBS-free medium. Cells are fixed in a solution comprising PFA on HistoBond+ Adhesion Microscope Slides (Marienfeld, 0810461). To estimate the total amount of DNA damage per cell, the fixed cells are incubated overnight at 4° C. in PBS comprising anti-γH2AX antibody (Mouse anti-phospho-Histone H2A.X (Ser139), clone JBW301, Millipore, Cat #: 05-636), then washed 5 times 10 minutes in a suitable buffer at RT, prior to incubation for at least two hours with a secondary antibody. Finally, the slides are washed another 5 times 10 minutes in PBS-T and dried overnight. The next morning, slides are sealed with a cover slip.

DYRK1A kinase = DYRK1A kinase (Homo sapiens, UniProt Q13627); conditions: cited from earlier work
Ercc1−/− mice = assay: Photoreceptor cell loss in Ercc1 knockout mouse model of premature aging (TUNEL staining of retina); format: in vivo; conditions: 10 mg/kg i.p. 3 times/week from P3, retina at P15
From the text: Mice were sacrificed at postnatal day P15 for retina tissue isolation. Tissues were embedded in optimal cutting temperature (OCT) compound, cryosectioned and stained using in situ cell detection kit (TUNEL staining) (11684817910, Roche).

[4] = system: Podocyte-specific Ercc1 knockout mice; assay: Kidney function (proteinuria) in podocyte-specific Ercc1 knockout mice; format: in vivo, mouse; conditions: 10 mg/kg/day for 4 weeks from 3 weeks of age; urine 8 and 11 days afterwards
Experimental: Proteinuria as endpoint for kidney dysfunction was assessed by Coomassie brilliant blue staining in urine 8 days (FIG. 7A) and 11 days (FIG. 7B) afterwards.
Proteinuria as endpoint for kidney dysfunction was assessed in urine 8 days and 11 days afterwards by assessing overall protein levels in urine samples via Coomassie brilliant blue staining after electrophoretic separation in a polyacrylamide gel.

[5] = molecular target: T1, monoamine oxidase A (MAOA) (Homo sapiens, UniProt P21397); conditions: cited from earlier work
T1 sequence (P21397 1-527): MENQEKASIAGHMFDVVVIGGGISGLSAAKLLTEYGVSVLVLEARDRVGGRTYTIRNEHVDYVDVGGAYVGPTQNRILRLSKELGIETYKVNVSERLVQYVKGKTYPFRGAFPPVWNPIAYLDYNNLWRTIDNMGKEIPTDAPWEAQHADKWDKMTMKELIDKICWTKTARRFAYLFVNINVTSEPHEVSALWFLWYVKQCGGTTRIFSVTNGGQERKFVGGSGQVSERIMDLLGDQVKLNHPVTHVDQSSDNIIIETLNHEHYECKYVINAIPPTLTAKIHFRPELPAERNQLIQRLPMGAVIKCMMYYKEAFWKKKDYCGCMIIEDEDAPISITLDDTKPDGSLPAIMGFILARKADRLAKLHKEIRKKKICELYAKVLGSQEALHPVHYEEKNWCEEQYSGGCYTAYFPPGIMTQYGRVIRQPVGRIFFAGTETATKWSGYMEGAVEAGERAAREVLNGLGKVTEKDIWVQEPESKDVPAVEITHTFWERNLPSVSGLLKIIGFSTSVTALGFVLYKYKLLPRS

In the case of `CCN1/C(=C/C(C)=O)Sc2ccc(O)cc21` [INDY, (1Z)-1-(3-ethyl-5-hydroxy-2(3H)-benzothiazoylidene)-2-propanone], the “expression of DREAM target genes” value (DREAM target genes) is reported as “upregulation of DREAM target genes”, the “number of the 67 DNA repair genes bound by DREAM that were upregulated” value (DREAM target genes) is reported as 46 and the “UV-induced apoptosis (annexin V positive + annexin V/7-AAD positive cells) vs mock treated cells” value (U2OS cells [1]) is reported as “highly significant reduction in UV-induced apoptosis”. The “resistance to MMS (apoptotic cells)” value (U2OS cells [2]) was “boosted the resistance to the alkylating agent MMS”, the “γH2AX amount after UV irradiation vs control cells” value (U2OS cells [3]) was “significantly lower amounts of γH2AX” and the “DYRK1A inhibition, selectivity” value (DYRK1A kinase) was “highly selective DYRK1A inhibitor”.

For `COc1ccc2c(c1)[nH]c1c(C)nccc12` [harmine], the “expression of DREAM target genes” value (DREAM target genes) was “upregulation of DREAM target genes”, the “number of the 67 DNA repair genes bound by DREAM that were upregulated” value (DREAM target genes) was 58 and the “UV-induced apoptosis (annexin V positive + annexin V/7-AAD positive cells) vs mock treated cells” value (U2OS cells [1]) was “highly significant reduction in UV-induced apoptosis”. For the same compound, the “resistance to MMS (apoptotic cells)” value (U2OS cells [2]) was “boosted the resistance to the alkylating agent MMS”, the “apoptosis in photoreceptor cells (TUNEL)” value (Ercc1−/− mice) was “prevented apoptosis in photoreceptor cells” and the “proteinuria (Coomassie staining of urine)” value [4] was “mitigation of proteinuria”. For the same compound, the MAOA inhibition [5] was “could also inhibit monoamine oxidase A (MAOA)”.
